Data taken from ChEMBL document CHEMBL1201862, “PubChem BioAssay data set” (2004).
Calls of active or inactive are those of the source.

What was measured:
[1] = molecular target: Peroxisome proliferator-activated receptor gamma/Nuclear receptor coactivator 3 (Homo sapiens, UniProt P37231); format: functional;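 further: agonist potency for raising coactivator recruitment to the receptor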
[2] = molecular target: Peroxisome proliferator-activated receptor gamma/Nuclear receptor coactivator 2 (Homo sapiens, UniProt P37231); format: functional;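 further: agonist potency for raising coactivator recruitment to the receptor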
Sequence of Peroxisome proliferator-activated receptor gamma/Nuclear receptor coactivator 2 (P37231 whole entry): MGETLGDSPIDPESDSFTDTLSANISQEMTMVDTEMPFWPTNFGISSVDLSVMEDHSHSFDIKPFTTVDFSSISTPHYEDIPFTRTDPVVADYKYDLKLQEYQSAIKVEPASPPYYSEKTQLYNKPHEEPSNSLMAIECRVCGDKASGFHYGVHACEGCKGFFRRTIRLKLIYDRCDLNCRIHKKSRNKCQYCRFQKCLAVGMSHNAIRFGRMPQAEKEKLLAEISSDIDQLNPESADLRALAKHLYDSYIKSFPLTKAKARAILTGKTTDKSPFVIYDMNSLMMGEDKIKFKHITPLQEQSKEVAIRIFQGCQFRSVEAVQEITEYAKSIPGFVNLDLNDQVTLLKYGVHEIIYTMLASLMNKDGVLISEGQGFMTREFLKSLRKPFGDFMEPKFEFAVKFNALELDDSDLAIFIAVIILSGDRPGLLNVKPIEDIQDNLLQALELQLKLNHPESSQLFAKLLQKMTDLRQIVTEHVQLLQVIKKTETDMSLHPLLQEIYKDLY
Sequence of Peroxisome proliferator-activated receptor gamma/Nuclear receptor coactivator 2 (Q15596 whole entry, further chain): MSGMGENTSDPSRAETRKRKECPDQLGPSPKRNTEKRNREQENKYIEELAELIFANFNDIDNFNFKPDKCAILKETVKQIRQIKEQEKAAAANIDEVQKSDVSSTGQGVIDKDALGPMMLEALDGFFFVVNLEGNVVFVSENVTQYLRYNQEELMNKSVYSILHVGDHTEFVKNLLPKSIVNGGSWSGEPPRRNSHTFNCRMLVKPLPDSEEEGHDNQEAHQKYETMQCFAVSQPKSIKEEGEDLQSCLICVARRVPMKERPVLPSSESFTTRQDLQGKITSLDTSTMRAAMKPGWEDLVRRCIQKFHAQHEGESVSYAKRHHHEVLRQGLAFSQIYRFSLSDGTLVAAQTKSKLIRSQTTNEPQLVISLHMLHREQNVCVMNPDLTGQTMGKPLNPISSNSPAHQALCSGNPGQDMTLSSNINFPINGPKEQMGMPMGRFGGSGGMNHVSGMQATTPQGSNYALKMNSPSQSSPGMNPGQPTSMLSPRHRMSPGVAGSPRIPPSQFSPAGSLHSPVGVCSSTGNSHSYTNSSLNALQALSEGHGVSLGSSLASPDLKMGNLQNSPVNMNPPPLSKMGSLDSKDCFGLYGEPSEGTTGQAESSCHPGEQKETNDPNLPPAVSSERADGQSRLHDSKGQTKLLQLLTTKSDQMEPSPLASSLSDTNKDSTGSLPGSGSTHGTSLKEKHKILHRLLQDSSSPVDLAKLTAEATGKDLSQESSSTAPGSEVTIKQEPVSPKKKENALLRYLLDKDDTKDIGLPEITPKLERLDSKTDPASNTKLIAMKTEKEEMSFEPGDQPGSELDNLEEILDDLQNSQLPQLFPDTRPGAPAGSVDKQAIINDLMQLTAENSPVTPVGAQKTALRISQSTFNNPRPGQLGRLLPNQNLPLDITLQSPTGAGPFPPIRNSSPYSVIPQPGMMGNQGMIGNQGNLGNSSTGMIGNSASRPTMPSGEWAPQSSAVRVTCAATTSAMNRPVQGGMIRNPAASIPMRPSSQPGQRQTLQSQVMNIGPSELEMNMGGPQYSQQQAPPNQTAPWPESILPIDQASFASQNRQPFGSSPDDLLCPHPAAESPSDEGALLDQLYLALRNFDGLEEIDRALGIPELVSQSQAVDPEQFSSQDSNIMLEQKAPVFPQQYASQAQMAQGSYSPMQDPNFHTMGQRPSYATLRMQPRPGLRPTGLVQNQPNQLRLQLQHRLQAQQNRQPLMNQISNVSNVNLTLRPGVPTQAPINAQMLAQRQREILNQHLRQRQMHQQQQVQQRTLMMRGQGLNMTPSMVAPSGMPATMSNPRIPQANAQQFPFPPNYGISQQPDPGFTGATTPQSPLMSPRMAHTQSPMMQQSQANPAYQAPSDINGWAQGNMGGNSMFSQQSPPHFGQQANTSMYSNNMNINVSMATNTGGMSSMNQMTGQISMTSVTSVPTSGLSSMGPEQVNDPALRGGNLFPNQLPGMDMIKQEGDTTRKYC

[3] = molecular target: Peroxisome proliferator-activated receptor gamma/Nuclear receptor coactivator 1 (Homo sapiens, UniProt P37231); format: functional;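 further: agonist potency as compounds enhance coactivator SRC-1 recruitment to PPARgamma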
Sequence of Peroxisome proliferator-activated receptor gamma/Nuclear receptor coactivator 1 (P37231 whole entry): as the sequence (P37231 whole entry) above
Sequence of Peroxisome proliferator-activated receptor gamma/Nuclear receptor coactivator 1 (Q15788 whole entry, further chain): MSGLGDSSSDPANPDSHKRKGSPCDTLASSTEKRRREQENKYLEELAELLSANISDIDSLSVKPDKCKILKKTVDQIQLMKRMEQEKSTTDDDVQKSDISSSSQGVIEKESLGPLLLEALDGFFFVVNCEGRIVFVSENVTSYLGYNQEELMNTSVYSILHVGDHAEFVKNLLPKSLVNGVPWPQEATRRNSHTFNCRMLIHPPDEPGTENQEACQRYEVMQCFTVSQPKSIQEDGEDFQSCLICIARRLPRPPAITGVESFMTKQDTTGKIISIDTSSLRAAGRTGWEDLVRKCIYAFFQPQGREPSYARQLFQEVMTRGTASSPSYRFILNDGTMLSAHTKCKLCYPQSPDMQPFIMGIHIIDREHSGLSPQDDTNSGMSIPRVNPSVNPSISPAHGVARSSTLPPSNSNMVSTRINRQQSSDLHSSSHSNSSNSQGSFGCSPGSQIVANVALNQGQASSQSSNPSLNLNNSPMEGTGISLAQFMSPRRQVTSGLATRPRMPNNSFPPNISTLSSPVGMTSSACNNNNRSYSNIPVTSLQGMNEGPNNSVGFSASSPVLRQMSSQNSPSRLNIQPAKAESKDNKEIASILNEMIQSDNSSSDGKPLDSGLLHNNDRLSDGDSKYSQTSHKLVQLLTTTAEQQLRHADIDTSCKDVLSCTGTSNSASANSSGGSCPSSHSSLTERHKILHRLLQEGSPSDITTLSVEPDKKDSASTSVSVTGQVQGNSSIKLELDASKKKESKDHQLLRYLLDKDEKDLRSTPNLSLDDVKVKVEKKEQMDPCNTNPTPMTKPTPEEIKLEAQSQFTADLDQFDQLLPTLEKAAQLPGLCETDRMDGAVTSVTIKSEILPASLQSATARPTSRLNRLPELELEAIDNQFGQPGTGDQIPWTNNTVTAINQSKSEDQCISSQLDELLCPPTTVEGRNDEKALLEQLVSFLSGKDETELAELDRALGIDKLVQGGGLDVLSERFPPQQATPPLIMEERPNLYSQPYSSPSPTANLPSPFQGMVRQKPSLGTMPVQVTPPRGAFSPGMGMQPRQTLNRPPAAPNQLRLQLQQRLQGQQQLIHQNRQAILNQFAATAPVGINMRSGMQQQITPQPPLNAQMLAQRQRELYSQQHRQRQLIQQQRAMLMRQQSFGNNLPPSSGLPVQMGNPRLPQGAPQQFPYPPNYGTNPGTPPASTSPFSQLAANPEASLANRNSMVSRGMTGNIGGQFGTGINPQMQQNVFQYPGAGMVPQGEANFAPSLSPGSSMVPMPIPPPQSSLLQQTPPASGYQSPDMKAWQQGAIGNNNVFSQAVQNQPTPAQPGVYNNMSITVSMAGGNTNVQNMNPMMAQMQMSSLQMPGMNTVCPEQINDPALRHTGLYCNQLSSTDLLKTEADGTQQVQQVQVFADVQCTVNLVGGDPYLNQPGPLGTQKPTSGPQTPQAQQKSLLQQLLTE

[4] = molecular target: T1, Neuropeptide Y receptor type 1 (Homo sapiens, UniProt P25929); assay: Fluorescence-based counterscreen for agonists of NPY-Y2: cell-based high-throughput dose response assay for agonists of NPY-Y1.; format: functional
T1 sequence (P25929 whole entry): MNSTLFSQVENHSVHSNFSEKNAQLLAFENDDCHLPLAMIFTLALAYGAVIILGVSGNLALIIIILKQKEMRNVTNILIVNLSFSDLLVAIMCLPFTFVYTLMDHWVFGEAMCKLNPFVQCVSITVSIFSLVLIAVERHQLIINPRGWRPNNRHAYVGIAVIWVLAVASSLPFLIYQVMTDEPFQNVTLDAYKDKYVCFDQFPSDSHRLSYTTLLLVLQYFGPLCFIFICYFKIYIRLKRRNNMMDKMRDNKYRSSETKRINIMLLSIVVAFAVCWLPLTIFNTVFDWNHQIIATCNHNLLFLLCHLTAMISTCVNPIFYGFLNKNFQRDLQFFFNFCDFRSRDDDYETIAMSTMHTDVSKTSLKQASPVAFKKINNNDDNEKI

HEK293 = assay: Fluorescence-based counterscreen for potentiators or agonists of NPY-Y2: cell-based high-throughput dose response assay to identify inhibitors of cyclic nucleotide gated ion channel (CNGC) activity. In this assay, the parental HEK293 cell line transfected with a cyclic-nucleotide gated ion channel (CNGC)-based cAMP sensor is used to measure inhibition of isoproterenol-induced CNGC activity by test compound.; format: functional; settings: Homo sapiens;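 further: stimulus is 1 µM isoproterenol at EC100 plus PDE inhibitor Ro 20-1724 at 25 µM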
[5] = molecular target: T2, Neuropeptide Y receptor type 2 (Homo sapiens, UniProt P49146); assay: Fluorescence-based cell-based high-throughput dose response assay for agonists of NPY-Y2. [Related pubchem assays: 1703 (Screening assay (CNGC inhibitors).), 1359 (Screening assay (NPY-Y2 potentiators or agonists).), 1304 (Screening assay (NPY-Y1 potentiators or agonists).), 1710 (Screening assay (NPY-Y2 agonists).), 1791 (Summary AID.)]; format: functional
T2 sequence (P49146 whole entry): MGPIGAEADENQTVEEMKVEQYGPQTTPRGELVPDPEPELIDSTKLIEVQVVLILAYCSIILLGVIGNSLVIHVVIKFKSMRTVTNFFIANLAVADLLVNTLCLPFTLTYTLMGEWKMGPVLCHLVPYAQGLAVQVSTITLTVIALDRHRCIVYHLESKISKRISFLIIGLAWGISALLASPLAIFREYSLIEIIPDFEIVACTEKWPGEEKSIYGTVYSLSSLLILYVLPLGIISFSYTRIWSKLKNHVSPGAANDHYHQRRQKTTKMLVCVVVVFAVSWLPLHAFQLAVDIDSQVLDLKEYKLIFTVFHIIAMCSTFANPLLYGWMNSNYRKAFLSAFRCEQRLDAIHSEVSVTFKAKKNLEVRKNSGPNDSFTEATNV

[6] = molecular target: T3, DNA repair protein RAD52 homolog (Homo sapiens, UniProt P43351); format: functional, biochemical
T3 sequence (P43351 whole entry): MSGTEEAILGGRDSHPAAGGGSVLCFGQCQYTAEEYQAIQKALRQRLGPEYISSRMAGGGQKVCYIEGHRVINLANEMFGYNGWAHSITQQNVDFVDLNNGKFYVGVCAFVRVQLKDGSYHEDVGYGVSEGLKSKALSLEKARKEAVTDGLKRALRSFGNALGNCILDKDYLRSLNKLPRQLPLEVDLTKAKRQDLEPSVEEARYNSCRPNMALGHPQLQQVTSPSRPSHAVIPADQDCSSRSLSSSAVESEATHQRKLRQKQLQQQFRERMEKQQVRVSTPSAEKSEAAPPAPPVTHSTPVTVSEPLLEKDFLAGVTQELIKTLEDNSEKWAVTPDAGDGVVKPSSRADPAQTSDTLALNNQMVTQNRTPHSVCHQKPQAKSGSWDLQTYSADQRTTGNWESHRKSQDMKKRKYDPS

[7] = viability loss in THP-1 monocytes – THP-1 cells, cytotoxicity control for Vif-APOBEC3G degradation inhibitor project, dose response (AID 1117359); format: functional; settings: THP-1
BJ [8] = assay: cells; format: functional, cell-based; settings: Homo sapiens
BJ [9] = assay: BJ-TERT fibroblast viability loss – cell-based, RAS-independent, luminescence, dose response (AID 1933); format: functional; settings: Homo sapiens
[10] = alpha-synuclein stem-loop translation blockers – luminescence, H4 neuroglioblastoma cells, dose confirmation, confirmation (AID 2454); format: functional, cell-based;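 further: H4 neuroglioblastoma cells carrying an alpha-synuclein 5'UTR luciferase reporter; potency for inhibition of the luciferase signal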
cells = format: functional, cell-based
BJ [11] = assay: BJ-TERT-LT-ST fibroblast viability loss – cell-based, RAS-independent, luminescence, dose response (AID 1935); format: functional; settings: Homo sapiens;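 further: BJ fibroblasts immortalized with TERT plus LT and ST oncogenes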
[12] = alpha-synuclein stem-loop luciferase translation blockers – H4 neuroglioma cells, luminescence, confirmation (AID 1988); format: functional, cell-based
[13] = DRD fibroblast viability loss – cell-based, non-viral oncogenic, luminescence, dose response (AID 1934); format: functional; settings: Homo sapiens
Paired box protein Pax-8 = Paired box protein Pax-8 (Homo sapiens, UniProt Q06710); assay: PAX8 transcriptional activity inhibition in RMG-I – RMG-I cells, luciferase, cherry-pick, dose response (AID 687027); format: functional, cell-based;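 further: luciferase reporter driven by Pax8 target thyroperoxidase promoter measured by SteadyGlo luminescence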
[14] = luciferase reporter signal reduction – luminescence, H4-C neuroglioblastoma cells, dose response (AID 2458); format: functional, cell-based;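 further: H4 neuroglioblastoma cells stably carrying a luciferase reporter gene fusion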
[15] = HEK-293T viability loss after treatment – luminescence, T-cell screen hits, cytotoxicity control for TCR NF-kB inhibitor project, dose response (AID 489026); format: functional, cell-based;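 further: cells exposed to compound about 14 hours before the viability readout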
[16] = Luminescence Cell-Based Dose Response HTS to Identify Inhibitors of 5'UTR Stem-Loop Driven Prion Protein mRNA Translation in H4 Neuroglioblastoma Cells. [Related pubchem assays: 1827 (Project Summary), 1813 (Primary HTS)]; format: functional
[17] = luciferase reporter signal suppression in cells – H4 neuroglioma cells, luminescence, dose response (AID 1990); format: functional, cell-based
fMet-Leu-Phe receptor = fMet-Leu-Phe receptor (Homo sapiens, UniProt P21462); assay: formyl peptide receptor binders – dose response (AID 519); format: functional
Sequence of fMet-Leu-Phe receptor (P21462 whole entry): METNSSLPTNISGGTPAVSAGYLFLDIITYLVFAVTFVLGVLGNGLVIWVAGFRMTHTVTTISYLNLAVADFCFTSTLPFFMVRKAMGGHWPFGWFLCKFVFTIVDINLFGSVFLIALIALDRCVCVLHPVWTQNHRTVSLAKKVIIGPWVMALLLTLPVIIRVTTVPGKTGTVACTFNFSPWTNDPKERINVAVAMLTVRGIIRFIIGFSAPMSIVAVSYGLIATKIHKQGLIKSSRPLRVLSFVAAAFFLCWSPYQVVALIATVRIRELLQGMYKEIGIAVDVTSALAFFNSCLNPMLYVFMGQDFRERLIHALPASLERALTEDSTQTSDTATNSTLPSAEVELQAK

Bcl-2-like protein 1 = Bcl-2-like protein 1 (Homo sapiens, UniProt Q07817); assay: blockers of BCLXL peptide binding – biochemical, fluorescence polarization, 1536-well, selectivity assay for MCL1 inhibitor project, dose response (AID 2218)
Sequence of Bcl-2-like protein 1 (Q07817 whole entry): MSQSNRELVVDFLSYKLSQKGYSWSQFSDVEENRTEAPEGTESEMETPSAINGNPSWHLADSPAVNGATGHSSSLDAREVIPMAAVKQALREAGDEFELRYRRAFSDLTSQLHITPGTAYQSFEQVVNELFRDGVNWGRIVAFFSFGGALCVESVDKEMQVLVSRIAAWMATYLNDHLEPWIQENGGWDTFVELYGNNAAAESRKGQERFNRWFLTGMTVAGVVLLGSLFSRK

Genome polyprotein [18] = molecular target: T4, Genome polyprotein (Hepatitis C virus, UniProt Q2Q167); assay: disruption of hepatitis C core self-association – biochemical, TR-FRET, dose response (AID 2159); set-up: species or system Hepacivirus hominis;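 further: blocks dimerization of HCV core protein measured by TR-FRET between tagged core106 pairs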
T4 sequence (Q2Q167 whole entry): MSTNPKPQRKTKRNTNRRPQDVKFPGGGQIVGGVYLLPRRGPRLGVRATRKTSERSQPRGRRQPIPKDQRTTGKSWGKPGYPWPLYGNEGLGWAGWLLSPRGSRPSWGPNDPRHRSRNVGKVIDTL

[19] = molecular target: T5, Induced myeloid leukemia cell differentiation protein Mcl-1 (Homo sapiens, UniProt Q07820); format: functional
T5 sequence (Q07820 whole entry): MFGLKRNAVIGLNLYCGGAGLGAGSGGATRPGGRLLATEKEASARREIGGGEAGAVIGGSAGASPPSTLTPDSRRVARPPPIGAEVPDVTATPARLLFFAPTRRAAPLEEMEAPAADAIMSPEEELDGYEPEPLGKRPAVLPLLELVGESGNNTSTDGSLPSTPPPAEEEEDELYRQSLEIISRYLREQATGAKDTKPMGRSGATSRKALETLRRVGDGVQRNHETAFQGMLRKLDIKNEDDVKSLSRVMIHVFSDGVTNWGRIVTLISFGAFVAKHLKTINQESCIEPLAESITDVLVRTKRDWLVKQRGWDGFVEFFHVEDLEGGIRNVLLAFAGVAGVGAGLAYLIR

[20] = molecular target: T5, Induced myeloid leukemia cell differentiation protein Mcl-1; assay: blockers of MCL1 binding to BIM peptide – biochemical, fluorescence polarization, BIM-BH3 peptide, 1536-well, dose response (AID 2217)
[21] = molecular target: Eukaryotic translation initiation factor 4E (Mus musculus, UniProt P63073); assay: blockers of eIF4G binding by eIF4E – biochemical, TR-FRET, dose response (AID 855); format: functional;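 further: potency for disrupting eIF4E binding to eIF4GI seen as loss of FRET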
[22] = CCR5-tropic HIV-1 fusion blockers – cell-based, CCR5-tropic Env, dose response (AID 2279); format: functional
[23] = inhibition of ARNT PAS-B/TACC3 complex formation – biochemical, AlphaScreen, cherry-picked samples, confirmation (AID 651703); format: functional, Homo sapiens;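 further: His-tagged ARNT PAS-B domain paired with GST-TACC3 E629A dimer coactivator fragment; potency of inhibitors that break up the complex and lower AlphaScreen signal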
Genome polyprotein [24] = molecular target: Genome polyprotein (dengue virus type 2, UniProt P29990); assay: flavivirus cap methylation enzyme inhibition – biochemical, confirmation dose response, primary screen (AID 588689); format: functional
Vero = assay: viability of Vero cells under compound – cytotoxicity control for flavivirus capping enzyme inhibitors (AID 588742); format: functional; settings: Chlorocebus sabaeus
[25] = molecular target: T6, Long-chain-fatty-acid--AMP ligase FadD28 (Mycobacterium tuberculosis, UniProt P9WQ59); assay: Fluorescence polarization aasay to screen for inhibitors that compete for the binding of FadD28 to a bisubstrate Measured in Biochemical System Using Plate Reader - 2147-01_Inhibitor_Dose_CherryPick_Activity.; format: functional, Mycobacterium tuberculosis H37Rv
T6 sequence (P9WQ59 whole entry): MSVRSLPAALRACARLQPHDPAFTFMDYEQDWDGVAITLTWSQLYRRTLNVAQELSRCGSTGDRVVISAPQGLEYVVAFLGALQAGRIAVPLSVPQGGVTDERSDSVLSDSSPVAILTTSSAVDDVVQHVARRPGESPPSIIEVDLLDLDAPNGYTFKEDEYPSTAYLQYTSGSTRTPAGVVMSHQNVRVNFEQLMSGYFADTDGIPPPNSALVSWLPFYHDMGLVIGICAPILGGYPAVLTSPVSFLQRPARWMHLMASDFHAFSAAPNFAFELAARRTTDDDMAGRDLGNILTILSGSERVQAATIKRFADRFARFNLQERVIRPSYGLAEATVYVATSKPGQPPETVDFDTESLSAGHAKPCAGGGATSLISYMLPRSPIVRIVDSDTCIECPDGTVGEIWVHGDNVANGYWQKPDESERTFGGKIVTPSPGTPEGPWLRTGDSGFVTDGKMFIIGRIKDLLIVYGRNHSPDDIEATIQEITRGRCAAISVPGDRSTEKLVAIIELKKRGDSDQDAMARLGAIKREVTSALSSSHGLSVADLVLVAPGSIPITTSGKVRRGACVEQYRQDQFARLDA

[26] = molecular target: T7, Tyrosine-protein phosphatase non-receptor type 7 (Homo sapiens, UniProt P35236); assay: HePTP tyrosine phosphatase activity blockers – biochemical, absorbance, leukemia target, primary screen (AID 521); format: functional
T7 sequence (P35236 whole entry): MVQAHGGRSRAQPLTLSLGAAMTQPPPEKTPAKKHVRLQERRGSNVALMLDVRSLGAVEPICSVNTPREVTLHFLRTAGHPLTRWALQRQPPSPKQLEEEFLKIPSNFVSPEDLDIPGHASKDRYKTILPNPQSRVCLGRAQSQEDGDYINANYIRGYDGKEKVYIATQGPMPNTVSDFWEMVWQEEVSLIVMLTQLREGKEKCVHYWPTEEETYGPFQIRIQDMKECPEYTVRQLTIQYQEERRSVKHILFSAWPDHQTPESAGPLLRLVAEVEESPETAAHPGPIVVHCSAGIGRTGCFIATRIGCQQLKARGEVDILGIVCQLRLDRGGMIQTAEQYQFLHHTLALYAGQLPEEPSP

O=C(NCc1nnc(S)n1-c1ccc(Br)cc1)c1ccc(S(=O)(=O)N2CCOCC2)cc1
EC50 [1]: > 79.4 µM (not active)
EC50 [2]: > 79.4 µM (not active)
EC50 [3]: > 79.4 µM (not active)

O=[N+]([O-])c1cccc2c(N3CCOCC3)ccnc12
EC50 [4]: > 35.4 µM (not active)
EC50 (HEK293): > 35.4 µM (not active)
EC50 [5]: > 35.4 µM (not active)

CC1=CC(C)(C)N=C(Nc2nc(C)c3cc(C)cc(C)c3n2)N1
AC50 [6]: 5.16 µM (active)
CC50 [7]: 37.6 µM (active)

O=C(N/N=C/c1cnc(N2CCCCC2)s1)c1ccc(Cl)cc1
EC50 [1]: > 79.4 µM (not active)
EC50 [2]: > 79.4 µM (not active)
EC50 [3]: > 79.4 µM (not active)

COc1cc(C2C3=C(Nc4ncnn42)c2ccccc2CC3)cc(OC)c1OC (stereo not given)
EC50 (BJ [8]): 0.659 µM (active)
EC50 (BJ [9]): 0.572 µM (active)
EC50 [10]: 0.348 µM (active)
EC50 (cells): 0.452 µM (active)
EC50 (BJ [11]): 0.498 µM (inconclusive)
EC50 [12]: < 0.1 µM (active)
EC50 [13]: 0.532 µM (active)
AC50 (Paired box protein Pax-8): 2.18 µM (active)
EC50 [14]: 0.21 µM (active)
IC50 [15]: > 80 µM (inactive)
EC50 [16]: < 0.1 µM (active)
EC50 [17]: < 0.1 µM (active)

O=C(O)C1CC=CCC1C(=O)N1CCN(c2nc(-c3ccccc3)c3ccccc3n2)CC1 (stereo not given)
EC50 [4]: 22 µM (not active)
Ki (fMet-Leu-Phe receptor): > 66.7 µM (inactive)
EC50 (HEK293): > 3.94 µM (active)
EC50 [5]: > 35.4 µM (not active)

COc1ccc(Cc2nnc(NC(=O)Cc3cccs3)s2)cc1OC
IC50 (Bcl-2-like protein 1): > 109 µM (not active)
IC50 (Genome polyprotein [18]): > 49.8 µM (not active)
IC50 [19]: 1.97 µM (active)
IC50 [20]: 5.14 µM (active)
IC50 [21]: 19.1 µM (active)

COCCN1C(=O)/C(=C/c2ccc(OCc3ccc(C(=O)O)cc3)c(OC)c2)S/C1=N\c1ccccc1
IC50 [22]: 40.2 µM (active)

CC(C(=O)Nc1ccc(O)c(C(=O)O)c1)N1C(=O)/C(=C/c2cccs2)SC1=S (stereo not given)
IC50 [22]: > 50 µM (active)
AC50 [23]: 132 µM (active)
IC50 (Genome polyprotein [24]): 41.1 µM (active)
CC50 (Vero): > 40 µM (active)
AC50 [25]: > 100 µM (inactive)

O=C(NCCCN1CCCC1=O)c1ccc(Cl)c(NS(=O)(=O)c2ccc(F)cc2)c1
IC50 [26]: > 100 µM (not active)

C=CCSc1nsc(N)n1
IC50 [26]: > 100 µM (not active)
